In PMC12656849 (Viruses, 2025):
Counter-ions that a name gives are not always drawn.

How the values were obtained:
MPXV H1 [1] = biological target: T1, MPXV H1 (Monkeypox virus, UniProt A0A7H0DN78); assay: biochemical
VARV H1 = conditions: cited from earlier work
MPXV = conditions: cited from earlier work
MPXV H1 [2] = biological target: T1, MPXV H1; format: biochemical; conditions: read-out: Michaelis constant (Km); pH 6.5
mpox = conditions: in vivo; cited from earlier work

T1 sequence (A0A7H0DN78 whole entry, looked up): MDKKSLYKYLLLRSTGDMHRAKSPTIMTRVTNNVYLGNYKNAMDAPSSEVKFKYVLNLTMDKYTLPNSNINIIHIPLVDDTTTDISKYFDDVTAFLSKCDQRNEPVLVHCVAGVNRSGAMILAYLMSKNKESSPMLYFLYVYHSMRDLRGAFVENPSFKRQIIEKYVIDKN

Compound | IC50 (MPXV H1 [1]) [nM] | cytotoxicity (in words) (HeLa cells) | other results
CC(C)(C)C(=O)Nc1ccc2c(c1)C(=O)C(=O)c1ccccc1-2 [Compound 35, SF1670] | 154 ± 12 |  | 
N#CSc1cc(SC#N)c(N)nc1N [Compound 41, PR619] | 176 ± 7 | particularly low cytotoxicity | 
CC1(C)CCC2=C(O1)c1ccccc1C(=O)C2=O [Compound 45, Beta-lapachone] | 348 ± 17 | particularly low cytotoxicity | 
O=C1C=C(Cl)C(=O)c2ccccc21 [Compound 47, 2-Chloro-1,4-naphthoquinone] | 837 ± 56 | particularly low cytotoxicity | 
Cl.Oc1cccc(O)n1 [Compound 57, 2,6-Dihydroxypyridine hydrochloride] | 911 ± 64 | particularly low cytotoxicity | 
O=C1C(=O)c2ncccc2-c2cccnc21 [Compound 59, Phanquinone] | 241 ± 7 |  | 
CN(C)CCNc1nc2cc(O)ccc2c2c1C(=O)c1ccccc1-2 [Compound 68, TAS-103 (dihydrochloride)] | 865 ± 16 | substantial cytotoxicity | 
CC(=O)c1cc2c(o1)C(=O)c1ccccc1C2=O [Compound 75, Napabucasin] | 957 ± 40 | substantial cytotoxicity | 
CC(C)NC1=CC=CNC1N1CCN(C(=O)c2cc3cc(NS(C)(=O)=O)ccc3[nH]2)CC1 (stereo not shown) [Compound 88, Delavirdine (mesylate)] | 987 ± 48 | particularly low cytotoxicity | 
Cn1cccc1/C=C1\C(=O)NC(=O)c2ccccc21 [Compound 89, BYK204165] | 794 ± 46 | particularly low cytotoxicity | 
Cc1coc2c1C(=O)C(=O)c1c-2ccc2c1CCCC2(C)C [Compound 106, Tanshinone IIA] | 531 ± 19 |  | 
COCCn1c2c([n+](Cc3cnccn3)c1C)C(=O)c1ccccc1C2=O [Compound 108, YM155] | 826 ± 65 | substantial cytotoxicity | 
CC1=CC(=O)c2c(O)cccc2C1=O [Compound 109, Plumbagin] | 874 ± 24 | particularly low cytotoxicity | 
Cc1c(S(=O)(=O)O)oc2c1C(=O)C(=O)c1c-2ccc2c1CCCC2(C)C [Compound 111, Tanshinone IIA sulfonate sodium] | 287 ± 10 |  | 
COc1cc2c3c(c1OC)-c1ccccc1C[C@H]3N(C)CC2 [Compound 112, Nuciferine] | 752 ± 9 |  | 
Nc1cc(N)c(N)cc1N [Compound 118, 1,2,4,5-Benzenetetramine tetrahydrochloride] | 333 ± 30 |  | 
COc1ccc2c(c1OC)CC1c3c(cc4c(c3-2)OCO4)CCN1C (stereo not shown) [Compound 122, Crebanine] | 229 ± 21 |  | 
COc1cc2c3c(cc4ccccc4c3c1OC)N(C)CC2 [Compound 123, Dehydronuciferine] | 356 ± 25 | particularly low cytotoxicity | 
CC(C)(c1ccc(NS(=O)(=O)C(F)(F)F)cc1)c1ccc(C(C)(C)c2ccc(NS(=O)(=O)C(F)(F)F)cc2)cc1 [PTP inhibitor IV] | 18900 |  | potency of VARV H1 inhibition (VARV H1): low-micromolar potency
OC(c1cc(C(F)(F)F)nc2c(C(F)(F)F)cccc12)C1CCCCN1 (stereo not shown) [mefloquine] |  |  | inhibition of MPXV (MPXV): inhibit MPXV
O=[N+]([O-])c1ccc(OP(=O)(O)O)cc1 [pNPP, p-nitrophenyl phosphate] |  |  | Km (MPXV H1 [2]): 1500 µM
O=C(NN1C(=O)[C@@H]2[C@@H]3C=C[C@@H]([C@H]4C[C@@H]34)[C@@H]2C1=O)c1ccc(C(F)(F)F)cc1 [tecovirimat] |  |  | mpox symptom duration compared with placebo (mpox): did not shorten
